Experimental findings from patent publication US20060142247A1, “Tricyclic heterocycles” (priority 2004, published 2006) are described below.

The subject of this experiment is HCT 116 cells. The experiment can be described thus: Viability assay HCT 116 cells (CellTiter-Glo). The class given is cell-based. The conditions noted are these: Homo sapiens, HCT-116, 120 h, HCT 116 human colon carcinoma cells, 5 days incubation, CellTiter-Glo luminescence. Here is the method: Viability Assay—HCT 116 Cells
A viability assay was performed using the CellTiter-Glo® Luminescent Cell Viability Assay (see Promega Corporation's Technical Bulletin No. 288, pp. 1-11 [revised 2/04] which is hereby incorporated by reference in its entirety). This assay is a homogeneous method of determining the number of viable cells in culture based on quantitation of the ATP present, an indicator of metabolically active cells. The assay is designed for use with multiwell formats, making it ideal for automated high-throughput screening (HTS), cell proliferation and cytotoxicity assays. The homogeneous assay procedure involves adding a single reagent (containing luciferase, luciferan substrate, and buffer) directly to cells cultured in serum-supplemented medium. Cell washing, removal of medium and multiple pipetting steps are not required. The system detects as few as 15 cells/well in a 384-well format in 10 minutes after adding reagent and mixing.
The homogeneous “add-mix-measure” format results in cell lysis and generation of a luminescent signal proportional to the amount of ATP present. The amount of ATP is directly proportional to the number of cells present in culture. The above-referenced assay generates a “glow-type” luminescent signal, produced by the luciferase reaction, which has a half-life generally greater than five hours, depending on cell type and medium used. The extended half-life eliminates the need to use reagent injectors and provides flexibility for continuous or batch mode processing of multiple plates. The unique homogeneous format avoids errors that may be introduced by other ATP measurement methods that require multiple steps.
HCT 116 cells (human colon carcinoma, ATCC-No. CCl-247) were cultivated in RPMI 1640 medium with GlutaMAX™ I (cell culture media that contains L-Alanyl-L-Glutamine [a stabilized a form/source of L-Glutamine] from Invitrogen, Cat-No. 61870-010), 2.5% Fetal Calf Serum (FCS, Sigma Cat-No. F4135 (FBS)); 100 Units/ml penicillin/100 μg/ml streptomycin (=Pen/Strep from Invitrogen Cat. No. 15140). For the assay the cells were seeded in 384 well plates, 1000 cells per well, in the same medium. The next day the test compounds were added in various concentrations ranging from 30 μM to 0.0015 μM (10 concentrations, 1:3 diluted). After 5 days the viability assay was done according to the instructions of the manufacturer. In brief: the cell-plate was equilibrated to room temperature for approximately 30 minutes and than the reagent (containing luciferase, luciferan substrate, and buffer) was added. The contents were carefully mixed for 15 minutes to induce cell lysis. After 45 minutes the luminescent signal was measured in Victor 2, (scanning multiwell spectrophotometer, Wallac).
Medium: RPMI 1640 with cell culture media containing L-Alanyl-L-Glutamine [GlutaMAX™ I (Invitrogen, Cat-Nr. 61870)], 5% FCS (Sigma Cat.-No. F4135), Pen/Strep (Invitrogen, Cat No. 15140). • HCT116 (ATCC-No. CCl-247): 1000 cells in 60 μl per well of 384 well plate (Greiner 781098, μClear-plate white) • After seeding incubate plates 24 h at 37° C., 5% CO2 2nd. Day: Induction (Treatment with Compounds, 10 Concentrations):
In order to achieve a final concentration of 30 μM as highest concentration […] of 10 mM compound stock solution were added directly to 163 μl media. Then step e) of the dilution procedure described below, was followed.
The compound `CC1(C)C(=O)N(CC2CC2)c2cc3[nH]c(-c4n[nH]c5ccccc45)nc3cc21` [Example 1, 5-Cyclopropylmethyl-2-(1H-indazol-3-yl)-7,7-dimethyl-5,7-dihydro-3H-imidazo[4,5-f]indol-6-one] yielded a half-maximal inhibitory concentration (IC50) of 100 to 1000 nM.

The compound `CN1C(=O)C(C)(C)c2cc3nc(-c4n[nH]c5ccccc45)[nH]c3cc21` [Example 4, 2-(1H-indazol-3-yl)-5,7,7-trimethyl-5,7-dihydro-3H-imidazo[4,5-f]indol-6-one] yielded an IC50 of 100 to 1000 nM.

In turn, `CCN1C(=O)CC(C)(C)c2cc3nc(-c4n[nH]c5ccccc45)[nH]c3cc21` [Example 14, 5-Ethyl-2-(1H-indazol-3-yl)-8,8-dimethyl-3,5,7,8-tetrahydro-imidazo[4,5-g]quinolin-6-one] gave an IC50 of 640 nM.

`CCN(CC)CCN1C(=O)C(C)(C)c2cc3nc(-c4n[nH]c5ccccc45)[nH]c3cc21` [Example 22, 5-(2-Diethylamino-ethyl)-2-(1H-indazol-3-yl)-7,7-dimethyl-5,7-dihydro-3H-imidazo[4,5-f]indol-6-one] returned an IC50 of 100 to 1000 nM.

As to `CSCCN1C(=O)C(C)(C)c2cc3nc(-c4n[nH]c5ccccc45)[nH]c3cc21` [Example 25, 2-(1H-Indazol-3-yl)-7,7-dimethyl-5-(2-methylsulfanyl-ethyl)-5,7-dihydro-3H-imidazo[4,5-f]indol-6-one], the IC50 is 100 to 1000 nM.

Take `CC1(C)C(=O)N(Cc2nccs2)c2cc3[nH]c(-c4n[nH]c5ccccc45)nc3cc21` [Example 32, 2-(1H-Indazol-3-yl)-7,7-dimethyl-5-thiazol-2-ylmethyl-5,7-dihydro-3H-imidazo[4,5-f]indol-6-one]: half-maximal inhibition (IC50) required 240 nM.

In the case of `CC1(C)C(=O)N(CC(=O)NCc2cccnc2)c2cc3[nH]c(-c4n[nH]c5ccccc45)nc3cc21` [Example 41, 2-[2-(1H-Indazol-3-yl)-7,7-dimethyl-6-oxo-6,7-dihydro-3H-imidazo[4,5-f]indol-5-yl]-N-pyridin-3-ylmethyl-acetamide], the IC50 lay in the range of 100 to 1000 nM.

As to `CC1(C)C(=O)N(CC(=O)NCc2ccc(F)cc2)c2cc3[nH]c(-c4n[nH]c5ccccc45)nc3cc21` [Example 46, N-(4-Fluoro-benzyl)-2-[2-(1H-indazol-3-yl)-7,7-dimethyl-6-oxo-6,7-dihydro-3H-imidazo[4,5-f]indol-5-yl]-acetamide], the half-maximal inhibitory concentration (IC50) lay in the range of 100 to 1000 nM.

As for `COc1cc(CNC(=O)CN2C(=O)C(C)(C)c3cc4nc(-c5n[nH]c6ccccc56)[nH]c4cc32)cc(OC)c1` [Example 47, N-(3,5-Dimethoxy-benzyl)-2-[2-(1H-indazol-3-yl)-7,7-dimethyl-6-oxo-6,7-dihydro-3H-imidazo[4,5-f]indol-5-yl]-acetamide], the IC50 fell in the range of 100 to 1000 nM.

In the case of `CC1(C)C(=O)N(CC(=O)NOCc2ccccc2)c2cc3[nH]c(-c4n[nH]c5ccccc45)nc3cc21` [Example 50, N-Benzyloxy-2-[2-(1H-indazol-3-yl)-7,7-dimethyl-6-oxo-6,7-dihydro-3H-imidazo[4,5-f]indol-5-yl]-acetamide], the half-inhibitory concentration (IC50) was in the range of 100 to 1000 nM.

The compound `CONC(=O)CN1C(=O)C(C)(C)c2cc3nc(-c4n[nH]c5ccccc45)[nH]c3cc21` [Example 51, 2-[2-(1H-Indazol-3-yl)-7,7-dimethyl-6-oxo-6,7-dihydro-3H-imidazo[4,5-f]indol-5-yl]-N-methoxy-acetamide] returned an IC50 of 100 to 1000 nM.

Turning to `CC1(C)C(=O)N(CCNC(=O)c2cccnc2)c2cc3[nH]c(-c4n[nH]c5ccccc45)nc3cc21` [Example 55, N-{2-[2-(1H-Indazol-3-yl)-7,7-dimethyl-6-oxo-6,7-dihydro-3H-imidazo[4,5-f]indol-5-yl]-ethyl}-nicotinamide], the half-maximal inhibitory concentration (IC50) was in the range of 100 to 1000 nM.

Take `CC1(C)C(=O)N(CCNC(=O)C2CC2)c2cc3[nH]c(-c4n[nH]c5ccccc45)nc3cc21` [Example 56, Cyclopropanecarboxylic acid {2-[2-(1H-indazol-3-yl)-7,7-dimethyl-6-oxo-6,7-dihydro-3H-imidazo[4,5-f]indol-5-yl]-ethyl}-amide]: the half-maximal inhibitory concentration (IC50) lay in the range of 100 to 1000 nM.

A word on the IC50: it is the concentration that inhibits the measured activity by half.
